Assays:
AMPAR = test: acute striatal brain slice electrophysiology, AMPAR antagonism; assay type: cell-based, mouse
Description: Electrophysiology. Preparation of Brain slices: Mice (8-10 weeks) were injected AAV10 HaloTag™-dTomato to striatum or ventral tegmental area (VTA). After 3-5 weeks, mice were deeply anesthetized with isoflurane and euthanized by decapitation. Coronal brain slices ([…]) containing striatum or VTA were prepared by standard methods using a Vibratome (Leica, VT 1200S), in ice-cold high sucrose cutting solution containing (in mM) 220 sucrose, 3 KCl, 1.25 NaH2PO4, 25 NaHCO3, 12 MgSO4.7H2O, 10 glucose, and 0.2 CaCl2) bubbled with 95% O2 and 5% CO2. […]
Whole-cell patch-clamp recording: The brain slices or retinas were perfused with bubbled aCSF at 29-30° C. with a 2 ml/min flow rate. […] Series resistance was monitored using 5-10 mV hyperpolarizing step throughout the experiment, and cells were discarded if series resistance changed more than ˜15% during the experiment. […] Statistical significance was determined using Student's t or one-way or two-way ANOVA tests. eIPSCs or eEPSCs decay time constants were obtained by fitting a single-exponential function, I(t)=I exp(−t/T)+ISS, where I(t) is the amplitude of the current at time t and ISS is the steady-state current, I is instantaneous current subtracted from Iss, and t is the time constant of decay. […]

[1] = tested on: D1-Cre mice with +HTP or ddHTP in left dorsal striatum; test: open-field turning (locomotor) assay, unilateral delivery to dSPNs of dorsal striatum; assay type: in vivo, mouse; conditions: for open-field turning, +HTP mice / open-field turning, ddHTP mice: 10:1 mixture with Alexa488.1DART.2 infused into left dorsal striatum
Description: Mice: For behavioral experiments, mice strains included Drd1A-Cre (GENSAT EY262). For slice experiments, Drd1A-Cre were used. Mice were singly housed post-surgery, in a 12-hour reverse light cycle, with food and water provided ad libitum. Recombinant adeno-associated viral (rAAV) vectors.
Behavioral assays: Assays were performed at least 3 weeks after viral injection to allow for recombinant protein expression. Mice were acclimated to head-fixation for 3 consecutive days prior to behavioral experiments. Reagents were infused into the brain via the cranial cannula. Immediately following infusion, mice were placed into open-field chambers (27 cm×27 cm) in the dark, and behavior was recorded using infrared video.
These advances were combined in a mouse locomotor assay. AAV-DIO-^+HTPGPI or AAV-DIO-ddHTPGPI were expressed in the left dorsal striatum of D1-Cre mice, and implanted a unilateral cannula. Three weeks later, a baseline open-field behavior (saline infusion) was obtained; followed one week later by infusion of a 10:1 mixture of YM90K.1DART.2/Alexa488.1DART.2 (FIG. 3A). Mice were perfused for histology 24 hrs later, and quantitative measurement of the integrated Alexa capture over the dorsal striatum was performed. The magnitude of open-field turning vs dye capture (FIG. 3C) was then plotted A control was also performed as above using DART.1 and non-DART fluorescent dye (fluorogold) (FIG. 3B and FIG. 3D). Three points merit emphasis. […] Second, the data yielded a tight correlation between behavioral effects and histology; in particular the four animals with the weakest behavioral impact corresponded to those with little dye capture, providing an unbiased parameter with which to exclude these animals due to technical failure. Such a correlation was not seen with the original technology, despite efforts to estimate cannula patency with a non-DART fluorescent tracer. Third, in these behaving mice, YM90K.1DART.2 was substantially more efficacious than its predecessor, driving a 3-fold larger impact in a locomotor assay following unilateral delivery to dSPNs of the dorsal striatum (FIG. 3E and FIG. 3F). Experiments in acute striatal brain slice confirmed the performance boost afforded by DART.2. Low-dose, YM90K.1DART.2 produced rapid AMPAR antagonism on +HTP neurons, achieving half-block after only 5 min of a 0.3 µM dose. This represents a ˜10-fold acceleration in comparison to its predecessor, which required 15 min of a 1 µM dose to achieve a similar block. Neither reagent produced any measurable impact on −HTP or ddHTP neurons at these doses. However, only YM90K.1DART.2 offered kinetics fast enough for routine slice physiology experiments.

COc1cc(CCCCl)ccc1CCOCCNC(=O)c1ccc(CNC(=O)CCOCCOCCOCCOCCOCCOCCOCCOCCOCCOCCOCCOCCOCCOCCOCCOCCOCCOCCOCCOCCOCCOCCOCCOCCOCCOCCOCCOCCOCCOCCOCCOCCOCCOCCOCCOCCn2cc(COCCOCCOCCOCCOCCOCCNC(=O)CCCn3c(=O)c(=O)[nH]c4cc([N+](=O)[O-])c(-n5ccnc5)cc43)nn2)cc1 [YM90K.1DART.2]
acceleration in comparison to predecessor (AMPAR): ~10 fold
time to half-block of AMPAR (AMPAR; +HTP neurons, 0.3 µM dose): 5 min
open-field turning, +HTP mice [1]: a turning bias in +HTP mice was seen
open-field turning, ddHTP mice [1]: no turning bias
open-field turning, +HTP mice ([1]; listed as YM90K.1^DART.2): turned in proportion to dye capture
open-field turning, ddHTP mice ([1]; listed as YM90K.1^DART.2): little turning
impact in locomotor assay / behavioral potency in comparison to predecessor ([1]; unilateral delivery to dSPNs of the dorsal striatum): 3 fold

Reference: patent US20250213700A1, “COMPOUNDS, COMPOSITIONS, AND METHODS FOR CELL-SPECIFIC PHARMACOLOGY” (Duke University, priority 2022, published 2025)
